Laboratory results: the NIST ThermoML archive (doi:10.1016/j.jct.2016.08.010)
Numbers after ± are expanded uncertainties.

What was measured:
[1] = 100 kPa; for speed of sound: Frequency=3 MHz, Sing-around technique in a fixed-path interferometer; for mass density: Vibrating tube method
[2] = molar heat capacity at constant pressure; conditions: 100 kPa, Small sample (50 mg) DSC
[3] = xn = mol fraction of the nth substance listed; conditions: 100 kPa, Liquid; for speed of sound: Frequency=3 MHz, Sing-around technique in a fixed-path interferometer; for mass density: Vibrating tube method
[4] = molar heat capacity at constant pressure; xn = mol fraction of the nth substance listed; conditions: 100 kPa, Liquid, Small sample (50 mg) DSC

Structure (SMILES)	speed of sound ([1]; 293.15 K, Liquid)	mass density ([1]; 293.15 K, Liquid)	speed of sound ([1]; 298.15 K, Liquid)	mass density ([1]; 298.15 K, Liquid)	speed of sound ([1]; 303.15 K, Liquid)	mass density ([1]; 303.15 K, Liquid)	speed of sound ([1]; 308.15 K, Liquid)	mass density ([1]; 308.15 K, Liquid)	molar heat capacity at constant pressure ([2]; 293.15 K, Liquid)	molar heat capacity at constant pressure ([2]; 298.15 K, Liquid)	molar heat capacity at constant pressure ([2]; 303.15 K, Liquid)	molar heat capacity at constant pressure ([2]; 308.15 K, Liquid)	speed of sound ([3]; 293.15 K, x2 = 0)	mass density ([3]; 293.15 K, x2 = 0)	speed of sound ([3]; 298.15 K, x2 = 0)	mass density ([3]; 298.15 K, x2 = 0)	speed of sound ([3]; 303.15 K, x2 = 0)	mass density ([3]; 303.15 K, x2 = 0)	speed of sound ([3]; 308.15 K, x2 = 0)	mass density ([3]; 308.15 K, x2 = 0)	also measured
CCCCn1cc[n+](C)c1C.F[B-](F)(F)F [1-butyl-2,3-dimethylimidazolium tetrafluoroborate]	–	–	–	–	–	–	–	–	–	–	–	–	–	–	–	–	–	–	–	–	speed of sound ([1]; 293.15 K, Metastable liquid): 1659.7 ± 1.5 m/s; mass density ([1]; 293.15 K, Metastable liquid): 1193.5 ± 2 kg/m3; speed of sound ([1]; 298.15 K, Metastable liquid): 1645.7 ± 1.5 m/s; mass density ([1]; 298.15 K, Metastable liquid): 1191.8 ± 2 kg/m3; speed of sound ([1]; 303.15 K, Metastable liquid): 1632.5 ± 1.5 m/s; mass density ([1]; 303.15 K, Metastable liquid): 1189.7 ± 2 kg/m3; speed of sound ([1]; 308.15 K, Metastable liquid): 1619.8 ± 1.5 m/s; mass density ([1]; 308.15 K, Metastable liquid): 1187.9 ± 2 kg/m3; molar heat capacity at constant pressure ([2]; 293.15 K, Metastable liquid): 413.03 ± 8.8 J/K/mol; molar heat capacity at constant pressure ([2]; 298.15 K, Metastable liquid): 416.01 ± 8.9 J/K/mol; molar heat capacity at constant pressure ([2]; 303.15 K, Metastable liquid): 418.84 ± 8.9 J/K/mol; molar heat capacity at constant pressure ([2]; 308.15 K, Metastable liquid): 421.7 ± 9 J/K/mol
CCCCn1cc[n+](C)c1.F[B-](F)(F)F [1-butyl-3-methylimidazolium tetrafluoroborate]	1578.1 ± 1.7 m/s	1203.1 ± 2.1 kg/m3	1565.5 ± 1.7 m/s	1198.9 ± 2.1 kg/m3	1554.1 ± 1.7 m/s	1195.3 ± 2.1 kg/m3	1542.3 ± 1.7 m/s	1191.7 ± 2.1 kg/m3	362.35 ± 7.7 J/K/mol	365.12 ± 7.8 J/K/mol	367.48 ± 7.8 J/K/mol	369.88 ± 7.9 J/K/mol	–	–	–	–	–	–	–	–	–
CCCCn1cc[n+](C)c1.F[B-](F)(F)F [1-butyl-3-methylimidazolium tetrafluoroborate] + CCCCn1cc[n+](C)c1C.F[B-](F)(F)F	–	–	–	–	–	–	–	–	–	–	–	–	1578.1 ± 1.7 m/s	1203.1 ± 2.1 kg/m3	1565.5 ± 1.7 m/s	1198.9 ± 2.1 kg/m3	1554.1 ± 1.7 m/s	1195.3 ± 2.1 kg/m3	1542.3 ± 1.7 m/s	1191.7 ± 2.1 kg/m3	molar heat capacity at constant pressure ([4]; 293.15 K, x2 = 0): 362.35 ± 7.7 J/K/mol; molar heat capacity at constant pressure ([4]; 298.15 K, x2 = 0): 365.12 ± 7.8 J/K/mol; molar heat capacity at constant pressure ([4]; 303.15 K, x2 = 0): 367.48 ± 7.8 J/K/mol; molar heat capacity at constant pressure ([4]; 308.15 K, x2 = 0): 369.88 ± 7.9 J/K/mol
CCCCn1cc[n+](C)c1.F[B-](F)(F)F [1-butyl-3-methylimidazolium tetrafluoroborate] + CCn1cc[n+](C)c1.F[B-](F)(F)F	–	–	–	–	–	–	–	–	–	–	–	–	–	–	–	–	–	–	–	–	speed of sound ([3]; 293.15 K, x1 = 1): 1578.1 ± 1.7 m/s; mass density ([3]; 293.15 K, x1 = 1): 1203.1 ± 2.1 kg/m3; speed of sound ([3]; 298.15 K, x1 = 1): 1565.5 ± 1.7 m/s; mass density ([3]; 298.15 K, x1 = 1): 1198.9 ± 2.1 kg/m3; speed of sound ([3]; 303.15 K, x1 = 1): 1554.1 ± 1.7 m/s; mass density ([3]; 303.15 K, x1 = 1): 1195.3 ± 2.1 kg/m3; speed of sound ([3]; 308.15 K, x1 = 1): 1542.3 ± 1.7 m/s; mass density ([3]; 308.15 K, x1 = 1): 1191.7 ± 2.1 kg/m3; molar heat capacity at constant pressure ([4]; 293.15 K, x1 = 1): 362.35 ± 7.7 J/K/mol; molar heat capacity at constant pressure ([4]; 298.15 K, x1 = 1): 365.12 ± 7.8 J/K/mol; molar heat capacity at constant pressure ([4]; 303.15 K, x1 = 1): 367.48 ± 7.8 J/K/mol; molar heat capacity at constant pressure ([4]; 308.15 K, x1 = 1): 369.88 ± 7.9 J/K/mol
CCn1cc[n+](C)c1.F[B-](F)(F)F [1-ethyl-3-methylimidazolium tetrafluoroborate]	1631.1 ± 1.6 m/s	1283.9 ± 2 kg/m3	1619.2 ± 1.6 m/s	1279.9 ± 2 kg/m3	1607.4 ± 1.6 m/s	1276.3 ± 2 kg/m3	1596.2 ± 1.6 m/s	1272.1 ± 2 kg/m3	303.2 ± 6.5 J/K/mol	304.53 ± 6.5 J/K/mol	306.29 ± 6.5 J/K/mol	308.03 ± 6.6 J/K/mol	–	–	–	–	–	–	–	–	–
CCn1cc[n+](C)c1.F[B-](F)(F)F [1-ethyl-3-methylimidazolium tetrafluoroborate] + CCCCn1cc[n+](C)c1C.F[B-](F)(F)F	–	–	–	–	–	–	–	–	–	–	–	–	1631.1 ± 1.6 m/s	1283.9 ± 2 kg/m3	1619.2 ± 1.6 m/s	1279.9 ± 2 kg/m3	1607.4 ± 1.6 m/s	1276.3 ± 2 kg/m3	1596.2 ± 1.6 m/s	1272.1 ± 2 kg/m3	molar heat capacity at constant pressure ([4]; 293.15 K, x2 = 0): 303.2 ± 6.5 J/K/mol; molar heat capacity at constant pressure ([4]; 298.15 K, x2 = 0): 304.53 ± 6.5 J/K/mol; molar heat capacity at constant pressure ([4]; 303.15 K, x2 = 0): 306.29 ± 6.5 J/K/mol; molar heat capacity at constant pressure ([4]; 308.15 K, x2 = 0): 308.03 ± 6.6 J/K/mol
